Here are results for 39 compounds from patent US20240174611A1 (Rappta Therapeutics Oy, priority 2021, published 2024).

In one assay the test system is LNCaP cells. Put plainly: LNCaP cell viability assay (MTS). The class given is cell-based. The note with it: Homo sapiens, LNCaP, 48 h, LNCaP cell line, 48 hours treatment. As for the experimental part:
LNCaP cell line was used for the cell viability assay. LNCaP cells were plated in 96-well plates at a density of 5000 cells per well. After 24 hours of plating, the cells were treated with increasing doses of compound 1-100 ranging from 1 μM to 80 μM. Relative cell numbers were analyzed after 48 hours using 3-(4,5-dimethylthiazol-2-yl)-5-(3-carboxymethoxyphenyl)-2-(4-sulfophenyl)-2H-tetrazolium (MTS) assay (Promega) according to the manufacturer's instructions.
The cell viability data was analyzed with GraphPad Prism software. The values were log transformed and analyzed with non-linear regression (curve-fit) using log(inhibitor) vs. response—variable slope (four parameters) and constraining the bottom to equal zero. Unless otherwise indicated, the GI50 values provided in Table 35 correspond to the LNCaP cell viability assays.
In turn, `O=S(=O)(N[C@@H]1CNC[C@@H]1c1ccc(Cl)c(Cl)c1)c1ccc(OC(F)(F)F)cc1` (racemic) [Compound 51, rac N-((3R,4R)-4-(3,4-dichlorophenyl)pyrrolidin-3-yl)-4-(trifluoromethoxy)benzenesulfonamide] had a GI50 of 10.4 µM.
As to `O=S(=O)(NC1CCCC1c1ccc(Cl)c(Cl)c1)c1ccc(OC(F)(F)F)cc1` (single isomer, unassigned) [Compound 43, N-(2-(3,4-dichlorophenyl)cyclopentyl)-4-(trifluoromethoxy)benzenesulfonamide], the GI50 amounted to 37.5 µM.
For the compound `O=S(=O)(NC1(c2ccc(Cl)cn2)CCNCC1)c1ccc(OC(F)(F)F)cc1` [Compound 87, N-(4-(5-chloropyridin-2-yl)piperidin-4-yl)-4-(trifluoromethoxy)benzenesulfonamide], growth was halved (GI50) at 46.6 µM.
The compound `CCC1CC1(NS(=O)(=O)c1ccc(OC(F)(F)F)cc1)c1cccc(C)c1` (stereo not drawn) [Compound 28, N-(2-ethyl-1-(m-tolyl)cyclopropyl)-4-(trifluoromethoxy)benzene-sulfonamide] had a GI50 of 62 µM.
The compound `CC(C)C1N(Cc2ccccc2)CC12C[C@@H](O)[C@H](NS(=O)(=O)c1ccc(OC(F)(F)F)cc1)C2` (mixture of isomers) [Compound 31] returned a GI50 of 45 µM.
For the compound `CC(C)Oc1ccc(S(=O)(=O)NC2(c3ccc(F)cc3)CCNC2)cc1` (stereo not drawn) [Compound 78, N-(3-(4-fluorophenyl)pyrrolidin-3-yl)-4-isopropoxybenzenesulfonamide], the GI50 is 70.5 µM.
For the compound `O=S(=O)(NC1(c2ccc(Cl)c(Cl)c2)CCNCC1)c1ccc(OC(F)(F)F)cc1` [Compound 49, N-(4-(3,4-dichlorophenyl)piperidin-4-yl)-4-(trifluoromethoxy)benzenesulfonamide], the GI50 is 6.75 µM.
`CC1(C)C[C@H](NS(=O)(=O)c2ccc(OC(F)(F)F)cc2)c2cc(F)ccc2O1` [Compound 27, (S)-N-(6-fluoro-2,2-dimethylchroman-4-yl)-4-(trifluoromethoxy)benzene-sulfonamide] registered a GI50 of 12 µM.
Turning to `O=S(=O)(NC1(c2ccccc2)CCCNC1)c1ccc(OC(F)(F)F)cc1` (stereo not drawn) [Compound 90, N-(3-phenylpiperidin-3-yl)-4-(trifluoromethoxy)benzenesulfonamide], halving of growth (GI50) required 48.9 µM. This GI50 lies about 4.1-fold higher than the previous one.
`O=S(=O)(NC1CCc2c(Cl)cc(Cl)cc21)c1ccc(OC(F)(F)F)cc1` (stereo not drawn) [Compound 11, N-(4,6-dichloro-2,3-dihydro-1H-inden-1-yl)-4-(trifluoromethoxy)benzene-sulfonamide]: it took 44.2 µM to inhibit growth by half (GI50).
The same measure, in the same setting: the value for `CN(C1(c2ccc(Cl)cc2)CCNC1)S(=O)(=O)c1ccc(OC(F)(F)F)cc1` (stereo not drawn) [Compound 85, N-(3-(4-chlorophenyl)pyrrolidin-3-yl)-N-methyl-4-(trifluoromethoxy)benzenesulfonamide] was 33.5 µM; that for `O=S(=O)(NC1(c2ccc(C(F)F)cc2)CCNCC1)c1ccc(OC(F)(F)F)cc1` [Compound 100, N-(4-(4-(difluoromethyl)phenyl)piperidin-4-yl)-4-(trifluoromethoxy)benzenesulfonamide] was 22.3 µM.
In turn, `CS(=O)(=O)N1CCC(NS(=O)(=O)c2ccc(OC(F)(F)F)cc2)(c2ccc(Cl)cc2)C1` (stereo not drawn) [Compound 72, N-(3-(4-chlorophenyl)-1-(methylsulfonyl)pyrrolidin-3-yl)-4-(trifluoromethoxy)benzenesulfonamide] gave a GI50 of 50.4 µM.
As to `O=S(=O)(NC1(c2ccc(F)cc2F)CCNCC1)c1ccc(OC(F)(F)F)cc1` [Compound 83, N-(4-(2,4-difluorophenyl)piperidin-4-yl)-4-(trifluoromethoxy)benzenesulfonamide], halving of growth (GI50) required 32 µM.
The compound `O=S(=O)(NC1(c2ccc(Cl)c(Cl)c2)CCN(Cc2ccccc2)C1)c1ccc(Oc2ccc(C(F)(F)F)cc2)cc1` (stereo not drawn) [Compound 55, N-(1-benzyl-3-(3,4-dichlorophenyl)pyrrolidin-3-yl)-4-(4-(trifluoromethyl)phenoxy)benzenesulfonamide] gave a GI50 of 38 µM.
On to `O=C1C(NS(=O)(=O)c2ccc(OC(F)(F)F)cc2)CCCN1Cc1cccc(C(F)(F)F)c1` (stereo not drawn) [Compound 16], for which the GI50 was found to be 34.4 µM.
`O=S(=O)(NC1(c2cc(F)ccc2F)CCNCC1)c1ccc(OC(F)(F)F)cc1` [Compound 88, N-(4-(2,5-difluorophenyl)piperidin-4-yl)-4-(trifluoromethoxy)benzenesulfonamide] came in with a GI50 of 36.5 µM.
As for `O=S(=O)(NC1(c2ccc(Cl)cc2)CCNC1)c1ccc(OC(F)(F)F)nc1` (stereo not drawn) [Compound 64, N-(3-(4-chlorophenyl)pyrrolidin-3-yl)-6-(trifluoromethoxy)pyridine-3-sulfonamide], the GI50 amounted to 44.9 µM.
`CC(C)(C)OC(=O)N1CCC(NS(=O)(=O)c2ccc(OC(F)(F)F)cc2)(c2ccc(Cl)cc2)CC1` [Compound 53, tert-butyl 4-(4-chlorophenyl)-4-((4-(trifluoromethoxy)phenyl)sulfonamido)piperidine-1-carboxylate] returned a GI50 of 16.3 µM.
As for `CC(C)(C)OC(=O)N1CCCC1C1(NS(=O)(=O)c2ccc(OC(F)(F)F)cc2)CC1` (stereo not drawn) [Compound 23], the GI50 was 26 µM. Against the preceding compound, the GI50 is about 1.6-fold higher.
`O=S(=O)(NC1(c2ccc(Cl)c(Cl)c2)CC1)c1ccc(OC(F)(F)F)cc1` [Compound 89, N-(1-(3,4-dichlorophenyl)cyclopropyl)-4-(trifluoromethoxy)benzenesulfonamide] had a GI50 of 46.6 µM. Compared with the last compound, the GI50 is about 1.8-fold higher.
The same measure, in the same setting: the value for `O=S(=O)(NC1(c2ccc(Cl)c(F)c2)CCNCC1)c1ccc(OC(F)(F)F)cc1` [Compound 56, N-(4-(4-chloro-3-fluorophenyl)piperidin-4-yl)-4-(trifluoromethoxy)benzenesulfonamide] was 11 µM.
`CC(C)Oc1ccc(S(=O)(=O)NC2(c3ccc(F)cc3)CCNCC2)cc1` [Compound 75, N-(4-(4-fluorophenyl)piperidin-4-yl)-4-isopropoxybenzenesulfonamide]: it took 30.7 µM to inhibit growth by half (GI50).
Consider `Nc1cc(S(=O)(=O)NC2(c3ccc(Cl)cc3)CCNCC2)ccc1OC(F)(F)F` [Compound 99, 3-amino-N-(4-(4-chlorophenyl)piperidin-4-yl)-4-(trifluoromethoxy)benzenesulfonamide], for which halving of growth (GI50) required 46.1 µM.
For the compound `CC(C)(C)N1CCC(NS(=O)(=O)c2ccc(OC(F)(F)F)cc2)C1c1ccc(Cl)c(F)c1` (single isomer, unassigned; enantiomer 1) [Compound 37, trans N-(1-(tert-butyl)-2-(4-chloro-3-fluorophenyl)pyrrolidin-3-yl)-4-(trifluoromethoxy)benzene-sulfonamide enantiomer 1], the GI50 was determined as 16 µM.
Turning to `CCOc1cc(CN2CCC(NS(=O)(=O)c3ccc(OC(F)(F)F)cc3)CC2)ccc1O` [Compound 30, N-(1-(3-ethoxy-4-hydroxybenzyl)piperidin-4-yl)-4-(trifluoromethoxy)benzene-sulfonamide], the GI50 was 30 µM.
Turning to `O=C(OCc1ccccc1)N1CCC(NS(=O)(=O)c2ccc(OC(F)(F)F)cc2)(c2ccc(Cl)c(Cl)c2)C1` (stereo not drawn) [Compound 40], the GI50 was found to be 25.5 µM.
In turn, `O=S(=O)(NC1(C23CC(C2)C3)CCNCC1)c1ccc(OC(F)(F)F)cc1` [Compound 66, N-(4-(bicyclo[1.1.1]pentan-1-yl)piperidin-4-yl)-4-(trifluoromethoxy)benzenesulfonamide] came in with a GI50 of 68.6 µM.
`O=S(=O)(NC1(c2cccc(Cl)c2)CCCC1)c1ccc(OC(F)(F)F)cc1` [Compound 14, N-(1-(3-chlorophenyl)cyclopentyl)-4-(trifluoromethoxy)benzene-sulfonamide] yielded a GI50 of 42.8 µM.
Still for that read-out and setting: then `O=S(=O)(NC1CCN(c2cccc(Br)c2)C1)c1ccc(OC(F)(F)F)cc1` (stereo not drawn) [Compound 3], with 77.1 µM; and `O=S(=O)(NC1(c2ccc(Cl)cc2)CCNCC1)c1ccc(OC(F)(F)F)cc1` [Compound 45, N-(4-(4-chlorophenyl)piperidin-4-yl)-4-(trifluoromethoxy)benzenesulfonamide], with 11 µM; and `COc1ccc(Cl)cc1N1CCC(NS(=O)(=O)c2ccc(OC(F)(F)F)cc2)C1` (stereo not drawn) [Compound 2, N-(1-(5-chloro-2-methoxyphenyl)pyrrolidin-3-yl)-4-(trifluoromethoxy)benzene-sulfonamide], with 67.4 µM.
`O=S(=O)(NC1CCCCC1Oc1ccc(F)cc1)c1ccc(OC(F)(F)F)cc1` (stereo not drawn) [Compound 7, N-(2-(4-fluorophenoxy)cyclohexyl)-4-(trifluoromethoxy)benzene-sulfonamide]: it took 65.9 µM to inhibit growth by half (GI50).
On the same count and under the same terms, then `O=S(=O)(NC1(c2ccccc2)CCNCC1)c1ccc(OC(F)(F)F)cc1` [Compound 50, N-(4-phenylpiperidin-4-yl)-4-(trifluoromethoxy)benzenesulfonamide], with 23.3 µM.
As for `O=S(=O)(NC1(c2ccc(Cl)cc2)CCNCC1)c1ccc(C(F)(F)F)cc1` [Compound 97, N-(4-(4-chlorophenyl)piperidin-4-yl)-4-(trifluoromethyl)benzenesulfonamide], halving of growth (GI50) required 11.6 µM.
Consider `O=S(=O)(NC1CCCCCC1c1ccccc1)c1ccc(OC(F)(F)F)cc1` (stereo not drawn) [Compound 13, N-(2-phenylcycloheptyl)-4-(trifluoromethoxy)benzene-sulfonamide], for which the GI50 stood at 55.6 µM.
`CC(C)(C)OC(=O)N1CCC(CF)(NS(=O)(=O)c2ccc(OC(F)(F)F)cc2)C1` (stereo not drawn) [Compound 32] came in with a GI50 of 30 µM.
In turn, `O=S(=O)(NC1(c2ccc(Cl)s2)CCNCC1)c1ccc(OC(F)(F)F)cc1` [Compound 91, N-(4-(5-chlorothiophen-2-yl)piperidin-4-yl)-4-(trifluoromethoxy)benzenesulfonamide] had a GI50 of 9.6 µM.

The assay is the same for the next values; noted with them: LNCaP cell line, 48 hours treatment.
On to `O=S(=O)(NC1CCCC1c1ccc(Cl)c(Cl)c1)c1ccc(OC(F)(F)F)cc1` (single isomer, unassigned) [Compound 44, N-(2-(3,4-dichlorophenyl)cyclopentyl)-4-(trifluoromethoxy)benzenesulfonamide], for which halving of growth (GI50) required 45.4 µM. This lies in the double-digit micromolar range.
